Test results reported in article PMC10082729, “First study on in vitro antiviral and virucidal effects of flavonoids against feline infectious peritonitis virus at the early stage of infection” (Veterinary World, 2023).
Where two headings read alike, the source gives them in different places.

Key:
Duck hepatitis A virus = tested on: Duck hepatitis A virus; set-up: method as in PMID 27927057; details: in vitro, at 20 µg/mL; cited from earlier work
[1] = tested on: Respiratory syncytial virus; details: cited from earlier work
SARS-CoV-2 RdRp = details: in vitro; cited from earlier work
FIPV = assay: Post-viral entry assay, FIPV-infected cells by IPMA; details: Alphacoronavirus 1, CRFK
in vitro = details: cat, CC50
Influenza A virus = details: in vitro; cited from earlier work

Row | Structure (SMILES) | inhibition (Duck hepatitis A virus) | CC50 (CRFK cells) [µM] | antiviral activity (in vitro concentration) [1] [µM] | IC50 (SARS-CoV-2 RdRp) [µM] | CC10 (CRFK cells; cat, 24 h) [µM] | CC50 (CRFK cells; cat, 24 h) [µM] | EC50 (FIPV) [µM] | EC90 (FIPV) [µM] | CC50 at 24 h (in vitro) [µM] | EC50 (Influenza A virus) [µM]
1 | COc1ccc(-c2cc(=O)c3c(O)cc(O[C@@H]4O[C@H](CO[C@@H]5O[C@@H](C)[C@H](O)[C@@H](O)[C@H]5O)[C@@H](O)[C@H](O)[C@H]4O)cc3o2)cc1 [Linarin] | Duck hepatitis A virus (in vitro: 69.3% inhibition at 20 µg/mL) | > 200 |  |  |  |  |  |  |  | 
2 | O=c1cc(-c2ccc(O)c(O)c2)oc2cc(O)cc(O)c12 [Luteolin] |  |  | 2.08 to 24.71 | 4.6 | 136.80 ± 2.37 | 248 ± 3.4 | 36.28 ± 0.03 | 66 ± 1.82 | > 200 | 6.89 to 7.15
